Columns and labels:
[1] = target: T1, medaka ARβ (mArβ) (Oryzias latipes, UniProt D1MV73); assay: Medaka ARβ reporter gene assay, agonist assay; format: cell-based, Japanese medaka (Oryzias latipes); conditions: MAC = 1.0 × 10^−4 M
T1 sequence (D1MV73 1-744): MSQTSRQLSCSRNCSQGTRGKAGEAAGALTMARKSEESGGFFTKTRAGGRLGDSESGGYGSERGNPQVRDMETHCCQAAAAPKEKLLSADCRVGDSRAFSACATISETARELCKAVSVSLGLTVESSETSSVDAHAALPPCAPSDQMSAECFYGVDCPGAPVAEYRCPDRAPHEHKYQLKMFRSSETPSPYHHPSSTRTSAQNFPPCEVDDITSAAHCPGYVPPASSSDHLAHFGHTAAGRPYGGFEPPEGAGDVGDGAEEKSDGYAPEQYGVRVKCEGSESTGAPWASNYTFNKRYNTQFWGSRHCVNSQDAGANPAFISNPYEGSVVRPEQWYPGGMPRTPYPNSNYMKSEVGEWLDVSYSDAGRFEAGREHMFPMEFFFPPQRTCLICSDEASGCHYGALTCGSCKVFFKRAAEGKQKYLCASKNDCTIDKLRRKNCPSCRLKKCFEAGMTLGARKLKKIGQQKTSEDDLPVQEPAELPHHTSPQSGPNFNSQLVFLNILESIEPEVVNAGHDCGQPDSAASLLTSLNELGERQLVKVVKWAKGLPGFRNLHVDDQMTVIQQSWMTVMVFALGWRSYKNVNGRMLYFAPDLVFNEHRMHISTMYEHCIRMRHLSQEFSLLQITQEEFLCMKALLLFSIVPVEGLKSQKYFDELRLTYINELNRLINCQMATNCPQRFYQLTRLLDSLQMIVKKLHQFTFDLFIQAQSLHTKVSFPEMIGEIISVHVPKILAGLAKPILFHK

[2] = target: T1, medaka ARβ (mArβ); assay: Medaka ARβ reporter gene assay, antagonist assay; format: cell-based, Japanese medaka (Oryzias latipes)
[3] = target: T2, medaka Esr1 (mEsr1) (Oryzias latipes, UniProt P50241); assay: cell-based; parameters: species or system Japanese medaka (Oryzias latipes); conditions: mode of action in which EC50 or PC10 was obtained in RGA
T2 sequence (P50241 1-620): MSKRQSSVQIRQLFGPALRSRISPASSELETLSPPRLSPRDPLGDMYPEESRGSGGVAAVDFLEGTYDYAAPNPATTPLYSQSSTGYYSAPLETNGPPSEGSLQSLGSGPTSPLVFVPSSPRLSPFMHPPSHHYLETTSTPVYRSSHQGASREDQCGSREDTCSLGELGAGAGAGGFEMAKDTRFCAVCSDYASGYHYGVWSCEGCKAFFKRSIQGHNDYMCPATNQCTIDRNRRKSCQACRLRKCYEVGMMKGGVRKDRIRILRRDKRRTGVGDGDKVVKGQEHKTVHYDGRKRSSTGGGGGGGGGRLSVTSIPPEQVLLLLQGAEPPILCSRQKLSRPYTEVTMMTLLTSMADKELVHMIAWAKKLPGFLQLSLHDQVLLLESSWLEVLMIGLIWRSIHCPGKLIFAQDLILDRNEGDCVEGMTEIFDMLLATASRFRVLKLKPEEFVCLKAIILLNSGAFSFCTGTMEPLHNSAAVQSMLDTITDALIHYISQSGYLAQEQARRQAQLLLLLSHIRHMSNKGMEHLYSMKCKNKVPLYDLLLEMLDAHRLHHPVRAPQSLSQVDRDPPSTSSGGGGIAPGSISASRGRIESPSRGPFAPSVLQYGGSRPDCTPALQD

[4] = target: T2, medaka Esr1 (mEsr1); assay: Medaka Esr1 reporter gene assay, antagonist assay; format: cell-based, Japanese medaka (Oryzias latipes); conditions: E2 spiked at 1.0 nM (B); MAC = 1.0 × 10^−5 M
[5] = system: Japanese medaka; conditions: 12 h after fertilization to 101 days of age; ref Seki, Yokota, Matsubara, et al. (2003); cited from earlier work
[6] = system: Japanese medaka (Oryzias latipes); assay: Fish Short‐Term Reproduction Assay; format: in vivo; conditions: for GSI Female / GSI Male / HSI Female / HSI Male / Length Female / Length Male / Weight Female / Weight Male: completion of exposure
[7] = 940 μg/L measured, 21 d, sig. ↓ vs control
[8] = measured concentration 58.4 μg/L
[9] = measured concentration 227 μg/L
[10] = measured concentration 940 μg/L

In the case of `CCC(C)(C)c1ccc(O)cc1` [Chemical 4tPP, 4‐tert‐Pentylphenol], the Agonistic activity [1] is reported as “NE (MAC = 1.0 × 10^−4 M)”, the “Antagonistic activity IC30” value ([2]; 11‐KT spiked at 50 nM (D)) is reported as “IC30 = 1.7 × 10^−5 M^(D)” and the “In vitro positive: aAr” value ([2]; mode of action in which IC50 or IC30 was obtained in RGA) is reported as “aAr”. The “Antagonistic activity on mArβ (in words)” value ([2]; transcriptional activity on mArβ by 11KT) was “inhibitory potency”, the “In vitro positive: Esr” value [3] was “Esr” and the Antagonistic activity [4] was “NE (MAC = 1.0 × 10^−5 M)^(B)”. The “LOEC on abnormal sexual differentiation” value [5] was 224 µg/L, the “LOEC on hepatic VTG induction” value [5] was ≤ 51.1 µg/L and the “LOEC on reproductive impairment” value [5] was 224 µg/L. The Fertility rate ([6]; 58.4 μg/L measured, 21 d) was 94 ± 1.7%, the “Hepatic VTG, female” value ([6]; 58.4 μg/L measured, 21 d) was 2,930 ± 737 ng/mg‐liver and the Mortality ([6]; 58.4 μg/L measured, 21 d) was 4.2%. The “Mortality, number of dead fish” value ([6]; 58.4 μg/L measured, 21 d) was 1, the “Number of fertilized eggs (per female per day)” value ([6]; 58.4 μg/L measured, 21 d) was 20 ± 3.2 and the “Number of total eggs (per female per day)” value ([6]; 58.4 μg/L measured, 21 d) was 21 ± 3.1. The “SSC female (joint plates with papillary processes)” value (shortened to “SSC female”) ([6]; 58.4 μg/L measured, 21 d) was 0 ± 0, the “Hepatic VTG, male” value ([6]; 58.4 μg/L measured, 21 d, sig. ↑ vs control) was 970 ± 858 ng/mg‐liver and the Fertility rate ([6]; 227 μg/L measured, 21 d) was 94 ± 2.5%. For the same compound, the “Hepatic VTG, female” value ([6]; 227 μg/L measured, 21 d) was 3,070 ± 686 ng/mg‐liver, the Mortality ([6]; 227 μg/L measured, 21 d) was 4.2% and the “Mortality, number of dead fish” value ([6]; 227 μg/L measured, 21 d) was 1. For the same compound, the “Number of fertilized eggs (per female per day)” value ([6]; 227 μg/L measured, 21 d) was 19 ± 2.9, the “Number of total eggs (per female per day)” value ([6]; 227 μg/L measured, 21 d) was 20 ± 2.7 and the “SSC female” value ([6]; 227 μg/L measured, 21 d) was 0 ± 0. For the same compound, the “Hepatic VTG, male” value ([6]; 227 μg/L measured, 21 d, sig. ↑ vs control) was 3,700 ± 2,300 ng/mg‐liver, the Fertility rate ([6]; 940 μg/L measured, 21 d) was 81 ± 8.9% and the Mortality ([6]; 940 μg/L measured, 21 d) was 13%. The “Mortality, number of dead fish” value ([6]; 940 μg/L measured, 21 d) was 3, the “SSC female” value ([6]; 940 μg/L measured, 21 d) was 0 ± 0 and the “Hepatic VTG, female” value ([6]; 940 μg/L measured, 21 d, sig. ↑ vs control) was 8,100 ± 3,340 ng/mg‐liver. The “Number of fertilized eggs (per female per day)” value [6, 7] was 13 ± 3.5, the “Number of total eggs (per female per day)” value [6, 7] was 16 ± 4.7 and the “Change of hepatic VTG levels in females (in words)” value ([6]; 21 d) was “significant increase”. The “Fecundity, number of total eggs (in words)” value ([6]; 21 d) was “statistically significant decrease”, the “LOEC, elevated hepatic VTG in males” value ([6]; 21 d) was 58.4 µg/L and the LOECREPRO ([6]; LOEC on reproduction (fecundity and/or fertility)) was 940 µg/L. For the same compound, the minimal effective concentration ([6]; Oryzias latipes, 504 h, read-out: LOECmVTG) was 0.0584 µg/mL, the “Fertility rate (in words)” value ([6]; chemicals with significant decrease of number of total eggs) was “no significant effect” and the “LOECREPRO (reduction in fecundity or fertility)” value ([6]; concentrations without overt toxicity) was 940 µg/L. For the same compound, the LOECTOX ([6]; lowest observed effect concentration on mortality) was “ND (>940) μg/L”, the “GSI Female” value [6, 8] was 10.0 ± 0.6% and the “GSI Male” value [6, 8] was 0.89 ± 0.11%. The “HSI Female” value [6, 8] was 4.3 ± 0.50%, the “HSI Male” value [6, 8] was 2.3 ± 0.18% and the “Length Female” value [6, 8] was 36.0 ± 0.5 mm. The “Length Male” value [6, 8] was 37.8 ± 1.2 mm, the “Weight Female” value [6, 8] was 558 ± 48 mg and the “Weight Male” value [6, 8] was 590 ± 39 mg. For the same compound, the “GSI Female” value [6, 9] was 9.9 ± 1.0%, the “GSI Male” value [6, 9] was 0.73 ± 0.16% and the “HSI Female” value [6, 9] was 4.2 ± 0.44%. For the same compound, the “HSI Male” value [6, 9] was 2.2 ± 0.33%, the “Length Female” value [6, 9] was 35.5 ± 0.7 mm and the “Length Male” value [6, 9] was 36.2 ± 0.6 mm. For the same compound, the “Weight Female” value [6, 9] was 523 ± 48 mg, the “Weight Male” value [6, 9] was 546 ± 23 mg and the “GSI Female” value [6, 10] was 8.9 ± 1.2%. For the same compound, the “GSI Male” value [6, 10] was 0.73 ± 0.13%, the “HSI Female” value [6, 10] was 3.9 ± 0.73% and the “HSI Male” value [6, 10] was 3.6 ± 0.50%. The “Length Female” value [6, 10] was 36.1 ± 1.6 mm, the “Length Male” value [6, 10] was 35.6 ± 0.8 mm and the “Weight Female” value [6, 10] was 588 ± 130 mg. For the same compound, the “Weight Male” value [6, 10] was 509 ± 47 mg.

Reference: paper PMC9297976 (Journal of Applied Toxicology, 2021)
